Numbered stars: 1 amine (or outer) side, 2 acyl side, 3 side chain; on linkers, the order of the positions; unused ones are H or OH. Bridge positions count the residues as written; N and C are the ends. Square brackets hold non-standard residues; d marks the D form. Peptide text beside a SMILES is read from it. I, II: the chains in the order shown. Actinocin(9to1) = Cc1c2oc3c(C)ccc(C(=O)[*:1])c3nc-2c(C(=O)[*:2])c(N)c1=O; NMeV = CN[C@H](C(=O)O)C(C)C; Sar = CNCC(=O)O
tested on: Hepatotoxicity; assay: Literature-mined public compounds from Greene et al multi-species hepatotoxicity modelling dataset

Row | SMILES | Hepatotoxicity
1 | COc1cc2c(c(OC)c1OC)-c1ccc(OC)c(=O)cc1[C@@H](NC(C)=O)CC2 [COLCHICINE] | WE: Weak evidence (<10 case reports) of human hepatotoxicity
2 | O=C(O)c1cc(=O)c2c(OCC(O)COc3cccc4oc(C(=O)O)cc(=O)c34)cccc2o1 [CROMOLYN] | NE: No evidence of hepatotoxicity in any species
3 | CN1CCN(C(c2ccccc2)c2ccccc2)CC1 [CYCLIZINE] | HH: Evidence of human hepatotoxicity
4 | O=P1(N(CCCl)CCCl)NCCCO1 (stereo unspecified) [CYCLOPHOSPHAMIDE ANHYDROUS] | HH: Evidence of human hepatotoxicity
5 | CN1CCC(=C2c3ccccc3C=Cc3ccccc32)CC1.Cl [CYPROHEPTADINE HYDROCHLORIDE] | HH: Evidence of human hepatotoxicity
6 | CC(=O)O[C@]1(C(C)=O)CC[C@H]2[C@@H]3C=C(Cl)C4=CC(=O)[C@@H]5C[C@@H]5[C@]4(C)[C@H]3CC[C@@]21C [CYPROTERONE ACETATE] | AH: Evidence for animal hepatotoxicity but not tested in humans
7 | C=C(C)[C@H]1CC=C(C)CC1 [D-LIMONENE] | AH: Evidence for animal hepatotoxicity but not tested in humans
8 | CN(C)/N=N/c1[nH]cnc1C(N)=O [DACARBAZINE] | HH: Evidence of human hepatotoxicity
9 | Cc1c2oc3c(C)ccc(C(=O)N[C@@H]4C(=O)N[C@H](C(C)C)C(=O)N5CCC[C@H]5C(=O)N(C)CC(=O)N(C)[C@@H](C(C)C)C(=O)O[C@@H]4C)c3nc-2c(C(=O)N[C@@H]2C(=O)N[C@H](C(C)C)C(=O)N3CCC[C@H]3C(=O)N(C)CC(=O)N(C)[C@@H](C(C)C)C(=O)O[C@@H]2C)c(N)c1=O [DACTINOMYCIN] (I: T[dV]P[Sar][NMeV] / II: T[dV]P[Sar][NMeV]; ester I:1-I:C, II:1-II:C; linker I:N-II:N via Actinocin(9to1)) | HH: Evidence of human hepatotoxicity
10 | C#C[C@]1(O)CC[C@H]2[C@@H]3CCC4=Cc5oncc5C[C@]4(C)[C@H]3CC[C@@]21C [DANAZOL] | HH: Evidence of human hepatotoxicity
11 | O=C1CN(/N=C/c2ccc(-c3ccc([N+](=O)[O-])cc3)o2)C(=O)[N-]1.[Na+] [DANTROLENE SODIUM] | HH: Evidence of human hepatotoxicity
12 | Nc1ccc(S(=O)(=O)c2ccc(N)cc2)cc1 [DAPSONE] | HH: Evidence of human hepatotoxicity
13 | CC(=O)N(O)CCCCCNC(=O)CCC(=O)N(O)CCCCCNC(=O)CCC(=O)N(O)CCCCCN.CS(=O)(=O)O [DEFEROXAMINE MESYLATE] | HH: Evidence of human hepatotoxicity
14 | CN(CCCCCCCCCCN(C)C(=O)Oc1cccc([N+](C)(C)C)c1)C(=O)Oc1cccc([N+](C)(C)C)c1.[Br-].[Br-] [DEMECARIUM BROMIDE] | HH: Evidence of human hepatotoxicity
15 | CN(C)[C@@H]1C(O)=C(C(N)=O)C(=O)[C@@]2(O)C(O)=C3C(=O)c4c(O)ccc(Cl)c4[C@@H](O)[C@H]3C[C@@H]12.Cl [DEMECLOCYCLINE HYDROCHLORIDE] | HH: Evidence of human hepatotoxicity
16 | CNCCCN1c2ccccc2CCc2ccccc21 [DESIPRAMINE] | WE: Weak evidence (<10 case reports) of human hepatotoxicity
17 | C[C@@H]1C[C@H]2[C@@H]3CCC4=CC(=O)C=C[C@]4(C)[C@@]3(F)[C@@H](O)C[C@]2(C)[C@@]1(O)C(=O)CO [DEXAMETHASONE] | NE: No evidence of hepatotoxicity in any species
18 | C[C@H](N)Cc1ccccc1.C[C@H](N)Cc1ccccc1.O=S(=O)(O)O [DEXTROAMPHETAMINE SULFATE] | HH: Evidence of human hepatotoxicity
19 | Br.COc1ccc2c(c1)[C@]13CCCC[C@@H]1[C@H](C2)N(C)CC3.O [DEXTROMETHORPHAN HYDROBROMIDE] | NE: No evidence of hepatotoxicity in any species
20 | Cc1onc(-c2c(Cl)cccc2Cl)c1C(=O)N[C@@H]1C(=O)N2[C@@H]1SC(C)(C)[C@@H]2C(=O)[O-].O.[Na+] [DICLOXACILLIN SODIUM] | HH: Evidence of human hepatotoxicity
21 | O=c1[nH]cnc2c1ncn2[C@H]1CC[C@@H](CO)O1 [DIDANOSINE] | HH: Evidence of human hepatotoxicity

Reference: ChEMBL document CHEMBL1697692, “Developing structure-activity relationships for the prediction of hepatotoxicity” (Chem Res Toxicol, 2010)
